Data from ChEMBL document CHEMBL1201862, “PubChem BioAssay data set” (2004).
Active and inactive are the calls of the source.

Assays:
[1] = Luminescence Cell-Based Dose Confirmation HTS to Identify Inhibitors of Platelet Dense Granule Release. [Related pubchem assays: 1663 (Primary HTS), 1678 (Summary of Project)]; assay type: functional
[2] = molecular target: Luciferin 4-monooxygenase (Photinus pyralis, UniProt P08659); assay: inhibition of purified Photinus pyralis luciferase – biochemical, luminescence, dose response (AID 1891)
[3] = blockers of HIV-1 envelope-mediated cell-cell fusion – cherry-pick, dose response (AID 652057); assay type: functional, cell-based
[4] = molecular target: T1, DNA repair and recombination protein RAD54-like (Homo sapiens, UniProt Q92698); assay: RAD54 Holliday junction migration blockers – biochemical, fluorescence, cherry-picked samples, dose series, confirmation (AID 651657); assay type: functional
T1 sequence (Q92698 whole entry): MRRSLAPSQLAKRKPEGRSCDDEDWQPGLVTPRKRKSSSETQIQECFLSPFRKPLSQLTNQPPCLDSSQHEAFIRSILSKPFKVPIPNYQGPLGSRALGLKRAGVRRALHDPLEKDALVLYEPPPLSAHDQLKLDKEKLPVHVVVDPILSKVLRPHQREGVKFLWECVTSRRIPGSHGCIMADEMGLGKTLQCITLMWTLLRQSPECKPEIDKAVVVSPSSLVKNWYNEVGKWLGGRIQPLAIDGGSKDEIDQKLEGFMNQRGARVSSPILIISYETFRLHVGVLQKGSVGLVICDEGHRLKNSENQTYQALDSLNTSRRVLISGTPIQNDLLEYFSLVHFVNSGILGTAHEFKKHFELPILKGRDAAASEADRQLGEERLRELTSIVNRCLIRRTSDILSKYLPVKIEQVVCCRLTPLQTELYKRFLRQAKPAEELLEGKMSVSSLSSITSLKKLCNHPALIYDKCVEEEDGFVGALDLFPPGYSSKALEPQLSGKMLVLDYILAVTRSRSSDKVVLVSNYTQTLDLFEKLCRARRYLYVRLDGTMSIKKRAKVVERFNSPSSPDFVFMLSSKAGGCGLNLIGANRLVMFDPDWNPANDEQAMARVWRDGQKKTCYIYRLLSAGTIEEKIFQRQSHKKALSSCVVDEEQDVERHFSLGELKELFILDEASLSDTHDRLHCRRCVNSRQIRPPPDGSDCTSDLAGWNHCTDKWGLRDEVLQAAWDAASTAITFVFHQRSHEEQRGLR

BJ [5] = assay: BJ-TERT fibroblast viability loss – cell-based, RAS-independent, luminescence, dose response (AID 1933); assay type: functional; conditions: Homo sapiens
[6] = Luminescence Cell-Based Dose Response HTS to Identify Inhibitors of 5'UTR Stem-Loop Driven Prion Protein mRNA Translation in H4 Neuroglioblastoma Cells. [Related pubchem assays: 1827 (Project Summary), 1813 (Primary HTS)]; assay type: functional
[7] = alpha-synuclein stem-loop luciferase translation blockers – H4 neuroglioma cells, luminescence, confirmation (AID 1988); assay type: functional, cell-based
[8] = luciferase reporter signal suppression in cells – H4 neuroglioma cells, luminescence, dose response (AID 1990); assay type: functional, cell-based
BJ [9] = assay: BJ-TERT-LT-ST fibroblast viability loss – cell-based, RAS-independent, luminescence, dose response (AID 1935); assay type: functional; conditions: Homo sapiens;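 further: BJ fibroblasts immortalized with TERT plus LT and ST oncogenes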
BJ [10] = assay: cells; assay type: functional, cell-based; conditions: Homo sapiens
[11] = DRD fibroblast viability loss – cell-based, non-viral oncogenic, luminescence, dose response (AID 1934); assay type: functional; conditions: Homo sapiens
[12] = molecular target: T2, Polyadenylate-binding protein 1 (Homo sapiens, UniProt P11940); assay: MLLE binding blockers, Cy5 peptide tracer – biochemical, fluorescence polarization, Cy5-PAM2 peptide, secondary, miRNA deadenylation inhibitor project, dose response (AID 602260); assay type: functional; conditions: read-out: IC50_Mean
[13] = molecular target: T2, Polyadenylate-binding protein 1; assay: MLLE domain peptide-binding blockers, IC50 – biochemical, fluorescence polarization, FITC-PAM2 peptide, dose response (AID 602259); assay type: functional; conditions: read-out: IC50_Mean
[14] = molecular target: T3, Ubiquitin-conjugating enzyme E2 N (Homo sapiens, UniProt P61088); assay type: functional;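 further: Dose-response confirmation in a TR-FRET assay detecting UBC13-driven polyubiquitin chain formation, inhibition measured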
T3 sequence (P61088 whole entry): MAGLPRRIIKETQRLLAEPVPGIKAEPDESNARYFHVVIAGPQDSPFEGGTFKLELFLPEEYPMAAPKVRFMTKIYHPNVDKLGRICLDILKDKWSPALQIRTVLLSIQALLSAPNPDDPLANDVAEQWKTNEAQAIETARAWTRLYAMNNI

Cytochrome P450 1A2 = molecular target: T4, Cytochrome P450 1A2 (Homo sapiens, UniProt P05177);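 further: PubChem cytochrome P450 panel assay, CYP1A2 panel member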
T4 sequence (P05177 whole entry): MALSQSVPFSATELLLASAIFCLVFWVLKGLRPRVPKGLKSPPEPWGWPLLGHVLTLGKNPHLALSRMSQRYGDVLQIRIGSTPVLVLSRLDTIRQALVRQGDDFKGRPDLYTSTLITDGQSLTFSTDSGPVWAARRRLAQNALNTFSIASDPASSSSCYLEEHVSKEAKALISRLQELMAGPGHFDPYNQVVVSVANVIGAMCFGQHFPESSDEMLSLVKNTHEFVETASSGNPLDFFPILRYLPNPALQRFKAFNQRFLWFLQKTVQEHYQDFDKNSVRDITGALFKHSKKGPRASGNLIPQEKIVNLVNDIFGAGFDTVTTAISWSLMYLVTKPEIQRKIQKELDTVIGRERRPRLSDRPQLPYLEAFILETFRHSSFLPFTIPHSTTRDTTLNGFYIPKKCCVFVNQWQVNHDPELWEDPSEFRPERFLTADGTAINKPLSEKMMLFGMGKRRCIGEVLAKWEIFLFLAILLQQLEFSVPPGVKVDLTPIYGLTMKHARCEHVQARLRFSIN

[15] = P. falciparum Dd2 growth inhibitors, dose response, SYBR Green, cherry-picked samples (AID 1159567); assay type: functional, cell-based
Cytochrome P450 2D6 = Cytochrome P450 2D6 (Homo sapiens, UniProt P10635);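 further: CYP2D6 member of a cytochrome P450 panel assay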
[16] = HIV-1 AD8 envelope cell-cell fusion blockers – cherry-pick, dose response (AID 652062); assay type: functional, cell-based;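 further: luciferase signal from cell-cell fusion driven by HIV-1 clade B AD8 Env; potency is for inhibitors of fusion seen as a drop in luminescence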
[17] = Luminescence Cell-Based Dose Response HTS to Identify Activators of Luciferase Translation or Activity in H4 […] Cells. [Related pubchem assays: 1829 (Project Summary), 1814 (Primary HTS)]; assay type: functional
[18] = microbe, parasite or virus in culture; assay type: functional; conditions: Mycobacterium tuberculosis
[19] = Luminescence Cell-Based Dose Confirmation HTS to Identify Activators of 5'UTR Stem-Loop Driven Alpha-Synuclein mRNA Translation in H4 Neuroglioblastoma Cells. [Related pubchem assays: 1829 (Project Summary), 1814 (Primary HTS)]; assay type: functional
H4 = assay: Luminescence Cell-Based Dose Response HTS to Identify Activators of 5'UTR Stem-Loop Driven Prion Protein mRNA Translation in H4 Neuroglioblastoma Cells. [Related pubchem assays: 1829 (Project Summary), 1814 (Primary HTS)]; assay type: functional; conditions: Homo sapiens
INS1 = assay: INS-1E survival protection against cytokine death – cell-based, luminescence, retest, dose response (AID 449756); assay type: functional; conditions: Rattus norvegicus;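 further: cell death triggered by IL-1 beta plus TNF-alpha plus IFN-gamma mixture; protective hits raise ATP signal compared with cytokine alone wells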
[20] = Luminescence Cell-Based Dose Retest to Confirm Inhibitors of Cancer Stem Cells. [Related pubchem assays (depositor defined):AID2717, AID2721]; assay type: functional; conditions: Homo sapiens
[21] = non-specific 3'UTR reporter inhibition in Clone20-Shn3RL – cell-based, Renilla luciferase, cherry-picked, counter-screen for Shn3 inhibitor project, dose response (AID 624133); assay type: functional
[22] = reduction of Shn3 3'UTR-driven luciferase in osteoblasts – cell-based, Clone20 osteoblasts, firefly luciferase, cherry-picked, dose response (AID 624132); assay type: functional;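 further: firefly luciferase luminescence from reporter carrying the Shn3 3'UTR in osteoblasts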

T2 sequence (P11940 whole entry, the tested form may be a part): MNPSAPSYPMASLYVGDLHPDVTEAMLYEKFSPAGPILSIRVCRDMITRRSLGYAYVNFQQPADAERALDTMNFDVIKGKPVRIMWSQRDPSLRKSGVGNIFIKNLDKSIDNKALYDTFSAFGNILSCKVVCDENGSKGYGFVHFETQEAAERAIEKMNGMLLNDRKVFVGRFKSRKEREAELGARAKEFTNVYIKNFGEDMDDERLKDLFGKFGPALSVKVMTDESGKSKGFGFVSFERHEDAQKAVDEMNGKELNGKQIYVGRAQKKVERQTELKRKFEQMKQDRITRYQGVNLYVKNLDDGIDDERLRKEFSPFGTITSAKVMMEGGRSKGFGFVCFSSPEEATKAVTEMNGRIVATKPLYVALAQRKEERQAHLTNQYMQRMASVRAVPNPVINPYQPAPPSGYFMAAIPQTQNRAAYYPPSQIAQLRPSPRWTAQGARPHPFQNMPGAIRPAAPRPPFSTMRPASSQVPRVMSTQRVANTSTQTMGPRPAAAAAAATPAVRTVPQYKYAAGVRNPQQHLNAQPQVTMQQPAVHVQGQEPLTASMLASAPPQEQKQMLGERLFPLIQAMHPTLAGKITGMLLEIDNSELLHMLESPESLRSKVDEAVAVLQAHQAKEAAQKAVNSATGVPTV
Chain of Luciferin 4-monooxygenase (P08659 whole entry, the tested form may be a part): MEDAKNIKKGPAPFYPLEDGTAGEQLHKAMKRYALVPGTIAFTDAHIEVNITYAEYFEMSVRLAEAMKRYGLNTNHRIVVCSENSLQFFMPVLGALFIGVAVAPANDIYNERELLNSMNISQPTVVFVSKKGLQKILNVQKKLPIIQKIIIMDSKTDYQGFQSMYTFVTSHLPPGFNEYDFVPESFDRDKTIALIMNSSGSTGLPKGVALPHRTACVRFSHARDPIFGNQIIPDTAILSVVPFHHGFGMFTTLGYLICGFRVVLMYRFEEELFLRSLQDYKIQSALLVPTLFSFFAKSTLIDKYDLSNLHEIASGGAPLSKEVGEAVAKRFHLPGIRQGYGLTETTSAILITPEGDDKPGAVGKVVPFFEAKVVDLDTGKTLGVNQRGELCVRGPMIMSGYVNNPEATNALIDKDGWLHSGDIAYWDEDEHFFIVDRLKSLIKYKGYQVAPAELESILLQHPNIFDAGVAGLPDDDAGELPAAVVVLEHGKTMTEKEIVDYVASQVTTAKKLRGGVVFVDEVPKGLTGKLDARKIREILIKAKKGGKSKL
Chain of Cytochrome P450 2D6 (P10635 whole entry, the tested form may be a part): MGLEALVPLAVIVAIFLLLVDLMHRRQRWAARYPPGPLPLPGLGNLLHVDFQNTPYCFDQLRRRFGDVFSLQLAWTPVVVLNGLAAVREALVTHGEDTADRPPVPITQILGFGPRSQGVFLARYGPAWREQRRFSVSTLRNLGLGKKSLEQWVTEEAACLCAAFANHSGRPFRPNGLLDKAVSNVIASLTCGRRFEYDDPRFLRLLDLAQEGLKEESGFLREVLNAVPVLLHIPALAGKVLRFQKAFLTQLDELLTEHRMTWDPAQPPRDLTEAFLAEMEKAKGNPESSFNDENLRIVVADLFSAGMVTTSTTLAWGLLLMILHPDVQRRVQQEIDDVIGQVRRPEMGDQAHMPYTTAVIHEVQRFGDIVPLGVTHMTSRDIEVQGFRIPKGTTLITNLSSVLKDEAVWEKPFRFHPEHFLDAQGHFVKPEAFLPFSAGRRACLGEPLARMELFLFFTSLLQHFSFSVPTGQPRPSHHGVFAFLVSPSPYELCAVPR

With C=CCn1cc(/C=N/Nc2nc3ccccc3[nH]2)c2ccccc21 the EC50 [1] was > 112 µM (not active) and the EC50 [2] was 45.1 µM (active).

In the case of C[C@@H]1CN([C@H](C)CO)S(=O)(=O)c2ccc(-c3ccccc3)cc2O[C@@H]1CN(C)Cc1ccccc1, the AC50 [3] is reported as 31.8 µM (active).

In the case of CCN1CCCC1CNC(=O)c1cc2c(-c3cccc(OC)c3)nn(C)c2s1 (stereo unspecified), the AC50 [4] is reported as 56.9 µM (active).

In the case of CC(=O)Nc1ccc(Nc2nc(-c3c(C)nc4ccccn34)cs2)cc1, the EC50 (BJ [5]) is reported as 2.15 µM (active), the EC50 [6] is reported as 0.227 µM (active) and the EC50 [7] is reported as 0.13 µM (active). For the same molecule, the EC50 [8] was > 120 µM (not active), the EC50 (BJ [9]) was 0.654 µM (inconclusive) and the EC50 (BJ [10]) was 70.7 µM (inconclusive). The EC50 [11] was 2.86 µM (inconclusive).

With CCOC(=O)C1C(c2ccc(OC)c(OC)c2)c2c(n[nH]c2O)CC1(C)O (stereo unspecified) the EC50 [1] was > 112 µM (not active) and the EC50 [2] was > 112 µM (not active).

For Cc1cccc2cc(CN(CC(C)C)S(=O)(=O)c3ccccc3)c(O)nc12, the EC50 [1] was > 112 µM (not active) and the EC50 [2] was > 112 µM (not active).

In the case of CC(C)NS(=O)(=O)c1ccc(NC(=S)NC(=O)c2cccc([N+](=O)[O-])c2)cc1, the IC50 [12] is reported as > 66 µM (inactive) and the IC50 [13] is reported as > 66 µM (inactive).

For Oc1ccccc1-c1nc(NCCN2CCOCC2)c2ccccc2n1, the AC50 [4] was 29.5 µM (active).

With CCC(=O)N1CCN(c2ccc(NC(=S)NC(=O)c3cccc([N+](=O)[O-])c3)cc2)CC1 the IC50 [12] was > 66 µM (inactive) and the IC50 [13] was > 66 µM (inactive).

With CCCCN1C(=N)N([C@@H](CCC)CN2CCC[C@H]2CN2C(N)=NC[C@H]2CC(C)C)C[C@H]1Cc1ccccc1 the IC50 [14] was > 20 µM (inactive).

For CCOC(=O)c1c(NC(=O)c2c(C)noc2C)sc2c1CCCCC2, the AC50 (Cytochrome P450 1A2) was 5.01 µM (inconclusive), the EC50 [1] was > 112 µM (not active) and the EC50 [2] was > 112 µM (not active).

With CN(C)CC#Cc1ccc([C@H]2[C@H](CO)N3CCCCN(C(=O)CN(C)C)C[C@@H]23)cc1 the AC50 [15] was 9.36 µM (active).

With O=C(O)c1ccccc1SC1CC(=O)N(c2cccc3ccccc23)C1=O (stereo unspecified) the IC50 [12] was > 66 µM (inactive) and the IC50 [13] was > 66 µM (inactive).

In the case of CCOC(=O)CSc1nc2ccc(N)cc2s1, the EC50 [1] is reported as > 112 µM (not active) and the EC50 [2] is reported as > 112 µM (not active).

For CCCCOc1ccc(CNn2c(C)nc3ccccc3c2=O)cc1, the IC50 [14] was > 20 µM (inactive) and the AC50 (Cytochrome P450 2D6) was 7.94 µM (inconclusive).

For C[C@H]1CN([C@@H](C)CO)C(=O)c2c(c3ccccc3n2C)-c2ccccc2CO[C@H]1CN(C)C(=O)CCC(F)(F)F, the AC50 [3] was < 0.26 µM (active) and the AC50 [16] was 0.411 µM (active).

In the case of CC1(C)SC(=S)N(NC(=O)Nc2cccc3ccccc23)C1N(O)C(=O)Nc1ccccc1 (stereo unspecified), the EC50 [17] is reported as > 60 µM (not active), the CC50 [18] is reported as 36.3 µM (active) and the EC50 [19] is reported as > 120 µM (not active). The EC50 (H4) was > 120 µM (not active).

For CCN(CC)CC(C)OC(=O)c1ccccc1Cl (stereo unspecified), the EC50 [1] was > 112 µM (not active) and the EC50 [2] was > 112 µM (not active).

With C[C@H]1CN([C@@H](C)CO)C(=O)c2cc(NS(C)(=O)=O)ccc2O[C@@H]1CN(C)Cc1ccc(Cl)c(Cl)c1 the AC50 [3] was 48.9 µM (active).

For COc1ccc(Cl)cc1C(=O)O/N=C(\N)c1ccccn1, the CC50 [18] was > 40 µM (active).

With CN1CCN(c2ccc([N+](=O)[O-])cc2C(=O)c2ccc(Cl)cc2)CC1 the EC50 (BJ [5]) was 5.02 µM (active), the EC50 (BJ [9]) was 11 µM (inconclusive) and the EC50 (BJ [10]) was 33.7 µM (inconclusive). For the same molecule, the EC50 [11] was 4.22 µM (active).

In the case of c1csc(-c2csc3ncnc(NCCCN4CCOCC4)c23)c1, the AC50 [16] is reported as 4.73 µM (active) and the AC50 (INS1) is reported as 9.18 µM (active).

For CC(=O)c1cn(S(=O)(=O)c2ccccc2)c2ccccc12, the IC50 [14] was > 20 µM (inactive).

For O[C@@H](c1cc(C(F)(F)F)nc2c(C(F)(F)F)cccc12)[C@H]1CCCCN1, the IC50 [14] was > 20 µM (inactive) and the CC50 [18] was 13.5 µM (active).

With COCCCn1c(-c2ccc(S(=O)(=O)N3CCOCC3)cc2)cs/c1=N/c1ccccc1 the AC50 [16] was 15.3 µM (active).

With Cc1ccn2c(NC3CCCCC3)c(-c3cccc(-c4cccc(Cl)c4)c3)nc2c1 the AC50 [20] was 2.85 µM (active) and the CC50 [18] was > 40 µM (active).

For Cc1c(C(=O)N(Cc2cccc(Br)c2)C2CCS(=O)(=O)C2)oc2ccccc12 (stereo unspecified), the AC50 [21] was > 70 µM (inactive) and the AC50 [22] was 35.9 µM (active).

For COc1cc(/C=C2/SC(Nc3ccc(O)cc3)=NC2=O)cc(OC)c1O, the IC50 [14] was > 20 µM (inactive).

In the case of NC(=O)CN(c1ccccc1)C1SC(=O)N(Cc2ccccc2)C1=O (stereo unspecified), the IC50 [12] is reported as > 66 µM (inactive) and the IC50 [13] is reported as > 66 µM (inactive).

With Cc1ccc(NC(S)=Nc2ccc3c[nH]nc3c2)cc1 the EC50 [1] was > 112 µM (not active) and the EC50 [2] was > 112 µM (not active).

With COc1ccc2c3n(nc2c1)CCN=C3c1cc(Cl)c(N)c(Cl)c1 the CC50 [18] was 35.5 µM (active).
